In general, MIC refers to the smallest concentration in the dilution series that meets the test's criterion for growth inhibition. A low value points to a more susceptible organism.

The assay deals with Mycobacterium tuberculosis variant bovis. The experiment in a line: Antituberculosis activity against Mycobacterium bovis ATCC 25523. Type of assay: functional.

Converted amounts (≈) assume the structure as drawn.

In the case of `Cc1ccnc(NC(=O)NS(=O)(=O)c2cc(NC(=O)CCl)ccc2Cl)n1`, the lowest concentration to inhibit growth (MIC) was 10 µg/mL (≈ 23.9 µM). Turning to `COc1ccnc(NC(=O)NS(=O)(=O)c2cc(NC(=O)CCl)ccc2Cl)n1`, it took 10 µg/mL (≈ 23 µM) to inhibit growth (MIC).

For the origin of these results see ChEMBL document CHEMBL1949543, “Synthesis and evaluation of novel monosubstituted sulfonylurea derivatives as antituberculosis agents” (Eur J Med Chem, 2012).
